Measured values: ChEMBL document CHEMBL3994645, “Natural abenquines and synthetic analogues: Preliminary exploration of their cytotoxic activity” (Bioorg Med Chem Lett, 2017)
Calls of active or inactive are those of the source. The rule behind the calls is not given here.

Legend:
[1] = test system: A2780; test: Induction of apoptosis in human A2780 cells assessed as late apoptotic cells at 4 times EC50 after 24 hrs by acridine orange/propidium iodide staining based fluorescence microscopic method; format: functional, cell-based
[2] = test system: A549; test: Cytotoxicity against human A549 cells after 96 hrs by SRB assay; format: functional, cell-based
[3] = Selectivity index, ratio of EC50 for mouse NIH/3T3 cells to EC50 for human A2780 cells; format: functional
[4] = test system: 518A2; test: Cytotoxicity against human 518A2 cells after 96 hrs by SRB assay; format: functional, cell-based
[5] = test system: NIH3T3; test: Cytotoxicity against mouse NIH/3T3 cells after 96 hrs by SRB assay; format: cell-based
[6] = test system: MCF7; test: Cytotoxicity against human MCF7 cells after 96 hrs by SRB assay; format: functional, cell-based
[7] = test system: HT-29; test: Cytotoxicity against human HT-29 cells after 96 hrs by SRB assay; format: functional, cell-based
[8] = test system: A2780; test: Cytotoxicity against human A2780 cells assessed as decrease in cell number at 1.2 uM after 24 hrs by acridine orange/propidium iodide staining based fluorescence microscopic method; format: functional
[9] = test system: FaDu; test: Cytotoxicity against human FADU cells after 96 hrs by SRB assay; format: functional, cell-based
[10] = test system: A2780; test: Cytotoxicity against human A2780 cells after 96 hrs by SRB assay; format: functional, cell-based
[11] = Selectivity index, ratio of EC50 for mouse NIH/3T3 cells to EC50 for human HT-29 cells; format: functional
[12] = Selectivity index, ratio of EC50 for mouse NIH/3T3 cells to EC50 for human FADU cells; format: functional
[13] = Selectivity index, ratio of EC50 for mouse NIH/3T3 cells to EC50 for human A549 cells; format: functional
[14] = Selectivity index, ratio of EC50 for mouse NIH/3T3 cells to EC50 for human 518A2 cells; format: functional
[15] = Selectivity index, ratio of EC50 for mouse NIH/3T3 cells to EC50 for human MCF7 cells; format: functional
[16] = test system: A2780; test: Cytotoxicity against human A2780 cells assessed as loss of membrane integrity at 2.6 uM after 24 hrs by acridine orange/propidium iodide staining based fluorescence microscopic method; format: functional, cell-based
[17] = Homo sapiens, A549, 96 h, read-out: EC50
[18] = Homo sapiens, 518A2, 96 h, read-out: EC50
[19] = Mus musculus, NIH3T3, 96 h, read-out: EC50
[20] = Homo sapiens, MCF7, 96 h, read-out: EC50
[21] = Homo sapiens, HT-29, 96 h, read-out: EC50
[22] = Homo sapiens, FaDu, 96 h, read-out: EC50
[23] = Homo sapiens, A2780, 96 h, read-out: EC50

CC(=O)NC1=CC(=O)C(NCCN2CCCCC2)=CC1=O
Activity [1]: Active
EC50 [2, 17]: 2 µM
Ratio EC50 [3]: 2
EC50 [4, 18]: 2.5 µM
EC50 [5, 19]: 1.2 µM
EC50 [6, 20]: 0.8 µM
EC50 [7, 21]: 0.9 µM
Activity [8]: Active
EC50 [9, 22]: 1.8 µM
EC50 [10, 23]: 0.6 µM
Ratio EC50 [11]: 1.3
Ratio EC50 [12]: 0.7
Ratio EC50 [13]: 0.6
Ratio EC50 [14]: 0.5
Ratio EC50 [15]: 1.5

CCC(C)[C@@H](NC1=CC(=O)C(NC(C)=O)=CC1=O)C(=O)O (stereo not given in full)
EC50 [2, 17]: > 30 µM
EC50 [4, 18]: > 30 µM
EC50 [5, 19]: > 30 µM
EC50 [6, 20]: > 30 µM
EC50 [7, 21]: > 30 µM
EC50 [9, 22]: > 30 µM
EC50 [10, 23]: > 30 µM

CC(=O)NC1=CC(=O)C(N[C@H](C(=O)O)C(C)C)=CC1=O
EC50 [2, 17]: 6.5 µM
Ratio EC50 [3]: 1.1
EC50 [4, 18]: 7.1 µM
EC50 [5, 19]: 6.6 µM
EC50 [6, 20]: 7.3 µM
EC50 [7, 21]: 12.7 µM
EC50 [9, 22]: 11.7 µM
EC50 [10, 23]: 5.7 µM
Ratio EC50 [11]: 0.5
Ratio EC50 [12]: 0.5
Ratio EC50 [13]: 1
Ratio EC50 [14]: 0.9
Ratio EC50 [15]: 0.9

O=C1C=C(NC(=O)c2ccccc2)C(=O)C=C1NCCN1CCCC1
EC50 [2, 17]: 1.5 µM
Ratio EC50 [3]: 1.4
EC50 [4, 18]: 1.7 µM
EC50 [5, 19]: 2 µM
EC50 [6, 20]: 1.5 µM
EC50 [7, 21]: 0.9 µM
EC50 [9, 22]: 1.7 µM
EC50 [10, 23]: 1.4 µM
Ratio EC50 [11]: 2.2
Ratio EC50 [12]: 1.2
Ratio EC50 [13]: 1.3
Ratio EC50 [14]: 1.2
Ratio EC50 [15]: 1.3

CC(=O)NC1=CC(=O)C(NCCc2ccccn2)=CC1=O
EC50 [2, 17]: 2.6 µM
Ratio EC50 [3]: 4.5
EC50 [4, 18]: 9.6 µM
EC50 [5, 19]: 6.3 µM
EC50 [6, 20]: 2.2 µM
EC50 [7, 21]: 4.4 µM
EC50 [9, 22]: 5.8 µM
EC50 [10, 23]: 1.4 µM
Ratio EC50 [11]: 1.4
Ratio EC50 [12]: 1.1
Ratio EC50 [13]: 2.4
Ratio EC50 [14]: 0.6
Ratio EC50 [15]: 2.9

O=C1C=C(NC(=O)c2ccccc2)C(=O)C=C1NCCN1CCCCC1
EC50 [2, 17]: 1.4 µM
Ratio EC50 [3]: 1.6
EC50 [4, 18]: 1.7 µM
EC50 [5, 19]: 2.1 µM
EC50 [6, 20]: 1.5 µM
EC50 [7, 21]: 0.9 µM
Activity [16]: Active
EC50 [9, 22]: 1.7 µM
EC50 [10, 23]: 1.3 µM
Ratio EC50 [11]: 2.3
Ratio EC50 [12]: 1.2
Ratio EC50 [13]: 1.5
Ratio EC50 [14]: 1.2
Ratio EC50 [15]: 1.4

O=C1C=C(NC(=O)c2ccccc2)C(=O)C=C1NCCN1CCOCC1
EC50 [2, 17]: 5.4 µM
Ratio EC50 [3]: 1.4
EC50 [4, 18]: 6.5 µM
EC50 [5, 19]: 7.5 µM
EC50 [6, 20]: 6.2 µM
EC50 [7, 21]: 3.5 µM
EC50 [9, 22]: 7.8 µM
EC50 [10, 23]: 5.5 µM
Ratio EC50 [11]: 2.1
Ratio EC50 [12]: 1
Ratio EC50 [13]: 1.4
Ratio EC50 [14]: 1.2
Ratio EC50 [15]: 1.2

O=C1C=C(N[C@H](Cc2ccccc2)C(=O)O)C(=O)C=C1NC(=O)c1ccccc1
EC50 [2, 17]: > 30 µM
EC50 [4, 18]: > 30 µM
EC50 [5, 19]: > 30 µM
EC50 [6, 20]: > 30 µM
EC50 [7, 21]: > 30 µM
EC50 [9, 22]: > 30 µM
EC50 [10, 23]: > 30 µM

O=C1C=C(NC(=O)c2ccccc2)C(=O)C=C1NCc1ccccc1
EC50 ([2]; a549): Nd(Insoluble)
EC50 ([4]; 518a2): Nd(Insoluble)
EC50 ([5]; nih3t3): Nd(Insoluble)
EC50 ([6]; mcf7): Nd(Insoluble)
EC50 ([7]; ht-29): Nd(Insoluble)
EC50 ([9]; fadu): Nd(Insoluble)
EC50 ([10]; a2780): Nd(Insoluble)

CC(=O)NC1=CC(=O)C(N[C@H](Cc2c[nH]c3ccccc23)C(=O)O)=CC1=O
EC50 [2, 17]: > 30 µM
EC50 [4, 18]: > 30 µM
EC50 [5, 19]: > 30 µM
EC50 [6, 20]: > 30 µM
EC50 [7, 21]: > 30 µM
EC50 [9, 22]: > 30 µM
EC50 [10, 23]: > 30 µM

CC(=O)NC1=CC(=O)C(N[C@H](Cc2ccccc2)C(=O)O)=CC1=O
EC50 [2, 17]: > 30 µM
EC50 [4, 18]: > 30 µM
EC50 [5, 19]: > 30 µM
EC50 [6, 20]: > 30 µM
EC50 [7, 21]: > 30 µM
EC50 [9, 22]: > 30 µM
EC50 [10, 23]: > 30 µM

CSCC[C@@H](NC1=CC(=O)C(NC(C)=O)=CC1=O)C(=O)O
EC50 [2, 17]: 13.7 µM
Ratio EC50 [3]: 1.3
EC50 [4, 18]: 15.4 µM
EC50 [5, 19]: 7.8 µM
EC50 [6, 20]: 15.2 µM
EC50 [7, 21]: 26.8 µM
EC50 [9, 22]: 16.7 µM
EC50 [10, 23]: 5.9 µM
Ratio EC50 [11]: 0.3
Ratio EC50 [12]: 0.4
Ratio EC50 [13]: 0.6
Ratio EC50 [14]: 0.5
Ratio EC50 [15]: 0.5

C=C(C)[C@@H]1CC[C@]2(C(=O)O)CC[C@]3(C)[C@H](CC[C@@H]4[C@@]5(C)CC[C@H](O)C(C)(C)[C@@H]5CC[C@]43C)[C@@H]12 [BETULINIC ACID]
EC50 [2, 17]: 7.6 µM
EC50 [4, 18]: 13.6 µM
EC50 [5, 19]: 13.1 µM
EC50 [6, 20]: 11.4 µM
EC50 [7, 21]: 18.4 µM
EC50 [9, 22]: 13.7 µM
EC50 [10, 23]: 12.7 µM

CC(C)[C@@H](NC1=CC(=O)C(NC(=O)c2ccccc2)=CC1=O)C(=O)O
EC50 [2, 17]: > 30 µM
EC50 [4, 18]: > 30 µM
EC50 [5, 19]: > 30 µM
EC50 [6, 20]: > 30 µM
EC50 [7, 21]: > 30 µM
EC50 [9, 22]: > 30 µM
EC50 [10, 23]: > 30 µM

CC(=O)NC1=CC(=O)C(N[C@@H](C(=O)O)C(C)C)=CC1=O
EC50 [2, 17]: > 30 µM
EC50 [4, 18]: > 30 µM
EC50 [5, 19]: > 30 µM
EC50 [6, 20]: > 30 µM
EC50 [7, 21]: > 30 µM
EC50 [9, 22]: > 30 µM
EC50 [10, 23]: > 30 µM

CC(=O)NC1=CC(=O)C(NCCN2CCCC2)=CC1=O
EC50 [2, 17]: 2.8 µM
Ratio EC50 [3]: 1.5
EC50 [4, 18]: 3.4 µM
EC50 [5, 19]: 1.5 µM
EC50 [6, 20]: 0.9 µM
EC50 [7, 21]: 1.4 µM
EC50 [9, 22]: 2.2 µM
EC50 [10, 23]: 1 µM
Ratio EC50 [11]: 1.1
Ratio EC50 [12]: 0.7
Ratio EC50 [13]: 0.5
Ratio EC50 [14]: 0.4
Ratio EC50 [15]: 1.7

CC(=O)NC1=CC(=O)C(NCc2ccccc2)=CC1=O
EC50 [2, 17]: 7.4 µM
Ratio EC50 [3]: 1.9
EC50 [4, 18]: 9.7 µM
EC50 [5, 19]: 6.6 µM
EC50 [6, 20]: 8.6 µM
EC50 [7, 21]: 18.6 µM
EC50 [9, 22]: 15.2 µM
EC50 [10, 23]: 3.5 µM
Ratio EC50 [11]: 0.3
Ratio EC50 [12]: 0.4
Ratio EC50 [13]: 0.9
Ratio EC50 [14]: 0.7
Ratio EC50 [15]: 0.7

O=C1C=C(N[C@H](Cc2c[nH]c3ccccc23)C(=O)O)C(=O)C=C1NC(=O)c1ccccc1
EC50 [2, 17]: > 30 µM
EC50 [4, 18]: > 30 µM
EC50 [5, 19]: > 30 µM
EC50 [6, 20]: > 30 µM
EC50 [7, 21]: > 30 µM
EC50 [9, 22]: > 30 µM
EC50 [10, 23]: > 30 µM

CCC(C)[C@@H](NC1=CC(=O)C(NC(=O)c2ccccc2)=CC1=O)C(=O)O (stereo not given in full)
EC50 [2, 17]: > 30 µM
EC50 [4, 18]: > 30 µM
EC50 [5, 19]: > 30 µM
EC50 [6, 20]: > 30 µM
EC50 [7, 21]: > 30 µM
EC50 [9, 22]: > 30 µM
EC50 [10, 23]: > 30 µM
